Where “and” joins values, the source holds several entries; their conditions need not be identical. Identical values can stand only once. Entries after “also recorded” stand apart in the source; their conditions may differ.
How the values were obtained:
primary rat hepatocytes = test: Metabolism of BDE-99 in primary rat hepatocytes, GC/MS of extracts; assay type: in vitro ADME; conditions: for metabolite of BDE-99 detected by GC/MS (qualitative): compared with commercial standards
Source text: Primary rat hepatocytes were isolated from three individual male Sprague-Dawley CD rats (body weight 220-250 g) obtained from Laboratory Animal Center of Nanjing Medical University, using the two-step in situ collagenase perfusion method. Then the hepatocytes were purified by percoll density gradient separation and washed twice before being resuspended in the attachment medium. Cells viability exceeded 90% as determined by trypan blue exclusion. For the cell culture, the isolated hepatocytes were seeded in Type I collagen-coated 12-well plates at a density of 150, 000 cells/cm^2 in Williams' Medium E containing 5% fetal calf serum, 100 U/mL penicillin and 100 µg/mL streptomycin, and then incubated in a humidified atmosphere of 5% CO2 in air at 37°C. After 2-3 h incubation, the unattached cells were poured off and the medium was replaced with 1 mL HepatoZYME-SFM supplemented with 100 U/mL penicillin, 100 µg/mL streptomycin, 20 µg/L EGF and 20 µg/L HGF.
(§1) All the hepatocyte batches were exposed to BDE-99 at a nominal concentration of 10 µM, equivalent to 10 nM of compound per well. A stock solution of BDE-99 which was 200 times the final concentration in tissue culture medium was prepared in DMSO and stored at -20°C. Separate 12-well plates were used for the metabolism and gene expression analysis. To produce metabolites of BDE-99, the hepatocytes were treated once every 24 h for 3 days to take advantage of the increased activity of cells and potential increase in metabolite formation. The hepatocytes cultured with medium without BDE-99 were set up as controls. During medium exchange of the hepatocytes, we collected and pooled the contents from each well. After incubation, the hepatocytes were removed from the wells using 1 mL methanol to disrupt cell membranes. The contents were subsequently transferred to clean glass test tubes for extraction. For the gene expression analysis, the rat hepatocytes were exposed to 10 µM BDE-99 for 24 h. Wells treated with media containing aliquots of DMSO were set up as controls.
Hepatocytes and media were extracted using methods developed for the extraction of phenolic and neutral compounds from serum. Briefly, samples were first spiked with one internal standard, BDE-77, and extracted using methyl-tert-butyl ether/hexane:1/1(v/v). Lipids were removed from the extracts with concentrated sulfuric acid, and then the neutral and phenolic compounds were separated using a basic aqueous solution of potassium hydroxide. The phenolic fraction was derivatized with acetonitrile / methanol / water / pyrimidine: 5/2/2/1(v/v), then methyl chloroformate was added to produce methyl formate BDE congeners. After derivatization, samples were evaporated to complete dryness using a slow stream of nitrogen and reconstituted in hexane. Each human P450s assay sample was added into one internal standard BDE-77 before extraction. Proteins were denatured with 0.5 mL 6 M hydrochloric acid, and then 3 mL hexane was added for extraction. This step was repeated three times. The extraction was evaporated to complete dryness using a slow stream of nitrogen and reconstituted in 0.5 mL acetonitrile. Rates of elimination were determined by comparing the concentration of parent compound before and after the reaction.
The underivatized and derivatized extracts were analyzed using a GC/MS system (Trace DSQ ThermoFisher Scientific, USA) with electron impact (EI) ionization. Separation was performed on a DB-5MS column (30 m×0.25 mm i. d. ×0.25 µm thickness) (Agilent Technologies, Inc., USA). The inlet temperature was 260°C, and the injection was performed in pulsed splitless mode. The oven initial temperature was 110°C and was held for 1 min. The temperature was ramped to 210°C at 12°C/min, and a second ramp was performed to 250°C at 4°C/min and was […]. Finally, the oven was ramped to 300°C at 20°C/min and this step was held for 10 min to give a total run time of 32.83 min. […]

human CYP1A1 = biological target: T1, human CYP1A1 (Homo sapiens, UniProt P04798); test: Metabolic clearance (parent depletion) of BDE-99 by recombinant human CYP1A1; assay type: in vitro ADME; conditions: percentage parent BDE-99 metabolized during a 20-min incubation, 20 µM BDE-99, 37°C, mean ±SD, n = 3
T1 construct: made in house; host or cells: Sf9 insect cells (Bac-to-Bac baculovirus), microsomes
T1 sequence (P04798 1-512): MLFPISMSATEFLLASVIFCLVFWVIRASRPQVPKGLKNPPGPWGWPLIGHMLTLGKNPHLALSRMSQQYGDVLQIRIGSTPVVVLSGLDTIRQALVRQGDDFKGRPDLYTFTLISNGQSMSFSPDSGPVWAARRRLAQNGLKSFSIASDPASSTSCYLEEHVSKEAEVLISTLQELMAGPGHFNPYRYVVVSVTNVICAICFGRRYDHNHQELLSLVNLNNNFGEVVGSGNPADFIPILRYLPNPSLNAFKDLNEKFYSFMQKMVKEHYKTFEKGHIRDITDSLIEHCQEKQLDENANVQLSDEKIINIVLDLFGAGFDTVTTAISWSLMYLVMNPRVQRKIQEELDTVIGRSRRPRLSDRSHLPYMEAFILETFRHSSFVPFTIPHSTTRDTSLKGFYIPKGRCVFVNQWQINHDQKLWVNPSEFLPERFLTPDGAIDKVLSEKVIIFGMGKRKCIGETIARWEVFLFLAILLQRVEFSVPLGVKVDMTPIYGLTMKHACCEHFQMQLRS
Source text: (§2) All the proteins were expressed in a Bac-to-Bac baculovirus expression system (Invitrogen Corp., USA) following the manufacturer's instructions. Briefly, the CYP1A1 (NM_000499), CYP1A2 (NM_000761), CYP2A6 (NM_000762), CYP2E1 (NM_000773) and CYP3A4 (NM_017460) cDNA were first transformed to the recombinant bacmid, and subsequently transfected into the Sf9 cells to produce recombinant baculovirus particles, and further to get the baculoviral stock which was finally used to express CYPs proteins in the culture medium containing 0.1 µM ferric citrate and 0.1 µM 5-ALA. After being incubated for 72 h, the infected Sf9 cells were harvested and the microsomes were prepared by sonication using an Ultrasonic Processor (CPX130, Cole-Parmer Scientific Instruments, USA) and differential centrifugation. The protein expressed from the blank vector was used as a negative control. The prepared microsomes were stored at -80°C prior to usage.
(§3) Each human P450 was screened for its ability to oxidize and eliminate BDE-99 from the assay mixture. […]
(§4) Hepatocytes and media were extracted using methods developed for the extraction of phenolic and neutral compounds from serum. […] Rates of elimination were determined by comparing the concentration of parent compound before and after the reaction.

human CYP1A2 = biological target: T2, human CYP1A2 (Homo sapiens, UniProt P05177); test: Metabolic clearance (parent depletion) of BDE-99 by recombinant human CYP1A2; assay type: in vitro ADME; conditions: percentage parent BDE-99 metabolized during a 20-min incubation, 20 µM BDE-99, 37°C, mean ±SD, n = 3
T2 construct: made in house; host or cells: Sf9 insect cells (Bac-to-Bac baculovirus), microsomes
T2 sequence (P05177 1-516): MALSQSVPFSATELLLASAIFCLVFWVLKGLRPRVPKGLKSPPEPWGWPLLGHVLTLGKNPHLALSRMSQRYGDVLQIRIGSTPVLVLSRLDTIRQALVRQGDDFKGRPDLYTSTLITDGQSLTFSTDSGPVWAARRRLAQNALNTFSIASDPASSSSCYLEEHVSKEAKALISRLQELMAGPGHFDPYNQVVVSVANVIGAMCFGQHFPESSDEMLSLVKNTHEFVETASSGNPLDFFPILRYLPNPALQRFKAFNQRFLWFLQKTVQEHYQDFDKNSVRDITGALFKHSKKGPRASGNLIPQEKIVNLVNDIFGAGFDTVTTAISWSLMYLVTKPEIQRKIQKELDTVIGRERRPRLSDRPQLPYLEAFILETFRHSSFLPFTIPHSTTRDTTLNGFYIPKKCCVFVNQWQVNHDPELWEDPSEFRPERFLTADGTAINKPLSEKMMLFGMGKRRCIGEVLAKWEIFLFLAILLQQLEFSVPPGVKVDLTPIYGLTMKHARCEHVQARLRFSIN
Source text: as §2, §3, §4

human CYP2A6 = biological target: T3, human CYP2A6 (Homo sapiens, UniProt P11509); test: Metabolic clearance (parent depletion) of BDE-99 by recombinant human CYP2A6; assay type: in vitro ADME; conditions: percentage parent BDE-99 metabolized during a 20-min incubation, 20 µM BDE-99, 37°C, mean ±SD, n = 3
T3 construct: made in house; host or cells: Sf9 insect cells (Bac-to-Bac baculovirus), microsomes
T3 sequence (P11509 1-494): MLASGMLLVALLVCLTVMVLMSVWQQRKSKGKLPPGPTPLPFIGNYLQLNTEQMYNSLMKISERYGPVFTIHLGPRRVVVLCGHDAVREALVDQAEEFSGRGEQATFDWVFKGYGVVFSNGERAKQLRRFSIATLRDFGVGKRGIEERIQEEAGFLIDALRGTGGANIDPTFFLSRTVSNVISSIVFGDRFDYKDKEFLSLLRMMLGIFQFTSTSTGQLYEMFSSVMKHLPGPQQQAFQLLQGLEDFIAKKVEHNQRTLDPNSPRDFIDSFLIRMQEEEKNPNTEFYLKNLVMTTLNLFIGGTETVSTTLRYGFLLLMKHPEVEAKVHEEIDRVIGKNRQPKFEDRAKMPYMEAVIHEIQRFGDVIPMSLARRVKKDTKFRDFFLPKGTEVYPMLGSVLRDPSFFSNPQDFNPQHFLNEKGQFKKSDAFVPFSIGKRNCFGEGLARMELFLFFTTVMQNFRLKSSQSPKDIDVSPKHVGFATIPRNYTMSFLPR
Source text: as §2, §3, §4

human CYP2E1 = biological target: T4, human CYP2E1 (Homo sapiens, UniProt P05181); test: Metabolic clearance (parent depletion) of BDE-99 by recombinant human CYP2E1; assay type: in vitro ADME; conditions: 20-min incubation, 20 µM BDE-99, 37°C, N.S. = no significant difference (vs blank vector control)
T4 construct: made in house; host or cells: Sf9 insect cells (Bac-to-Bac baculovirus), microsomes
T4 sequence (P05181 whole entry): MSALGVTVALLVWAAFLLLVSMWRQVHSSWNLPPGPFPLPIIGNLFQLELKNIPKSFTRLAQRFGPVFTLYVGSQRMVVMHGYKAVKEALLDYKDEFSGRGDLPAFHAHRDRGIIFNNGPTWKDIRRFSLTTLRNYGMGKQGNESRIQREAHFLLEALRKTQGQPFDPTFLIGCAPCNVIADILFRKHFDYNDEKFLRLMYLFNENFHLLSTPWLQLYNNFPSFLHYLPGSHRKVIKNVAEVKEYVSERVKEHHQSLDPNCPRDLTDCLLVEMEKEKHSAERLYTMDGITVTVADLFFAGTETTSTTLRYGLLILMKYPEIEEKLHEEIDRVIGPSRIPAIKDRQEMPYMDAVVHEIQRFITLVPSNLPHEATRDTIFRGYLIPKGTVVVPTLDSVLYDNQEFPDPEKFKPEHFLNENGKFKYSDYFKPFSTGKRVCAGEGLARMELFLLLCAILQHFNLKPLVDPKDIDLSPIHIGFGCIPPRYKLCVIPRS
Source text: as §2, §3, §4

human CYP3A4 = biological target: T5, human CYP3A4 (Homo sapiens, UniProt P08684); test: Metabolic clearance (parent depletion) of BDE-99 by recombinant human CYP3A4; assay type: in vitro ADME; conditions: percentage parent BDE-99 metabolized during a 20-min incubation, 20 µM BDE-99, 37°C, mean ±SD, n = 3
T5 construct: made in house; host or cells: Sf9 insect cells (Bac-to-Bac baculovirus), microsomes
T5 sequence (P08684 whole entry): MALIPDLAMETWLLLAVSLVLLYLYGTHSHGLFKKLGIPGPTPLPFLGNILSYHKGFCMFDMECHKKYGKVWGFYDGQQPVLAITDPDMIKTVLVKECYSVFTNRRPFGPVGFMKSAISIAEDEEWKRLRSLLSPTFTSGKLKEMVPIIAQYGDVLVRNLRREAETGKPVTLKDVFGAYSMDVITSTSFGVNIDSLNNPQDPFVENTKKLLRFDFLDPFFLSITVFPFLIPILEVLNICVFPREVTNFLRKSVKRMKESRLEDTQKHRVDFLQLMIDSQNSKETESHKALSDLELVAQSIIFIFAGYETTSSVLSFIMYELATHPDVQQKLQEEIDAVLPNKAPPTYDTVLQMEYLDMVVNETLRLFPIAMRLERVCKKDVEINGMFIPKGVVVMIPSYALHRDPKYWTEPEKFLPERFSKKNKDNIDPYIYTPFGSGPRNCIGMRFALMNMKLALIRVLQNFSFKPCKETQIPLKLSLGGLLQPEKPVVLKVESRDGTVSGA
Source text: as §2, §3, §4

CYP1A2 mRNA = CYP1A2 mRNA expression in primary rat hepatocytes, quantitative RT-PCR; assay type: cell-based; conditions: 10 µM BDE-99, 24 h; P < 0.05; n = 3
Protocol: as §1, with “Wells treated with media containing aliquots of DMSO were set up as controls.” left out
(§5) The expression of several genes that encode potential biotransforming enzymes, such as CYP1A2, CYP2B1/2, CYP3A23/3A1, GSTM1 and GSTP1, were determined using quantitative RT-PCR, and GAPDH was used as a reference to calculate the expression levels. […] At the end of each step, the fluorescence intensity of evagreen was read on the 7900 system. […]

CYP2B1/2 mRNA = CYP2B1/2 mRNA expression in primary rat hepatocytes, quantitative RT-PCR; assay type: cell-based; conditions: 10 µM BDE-99, 24 h; P < 0.05; n = 3
Protocol: as §1, with “Wells treated with media containing aliquots of DMSO were set up as controls.” left out
as §5

CYP3A23/3A1 mRNA = CYP3A23/3A1 mRNA expression in primary rat hepatocytes, quantitative RT-PCR; assay type: cell-based; conditions: 10 µM BDE-99, 24 h; P < 0.05; n = 3
Protocol: as §1, with “Wells treated with media containing aliquots of DMSO were set up as controls.” left out
as §5

GSTM1 mRNA = GSTM1 mRNA expression in primary rat hepatocytes, quantitative RT-PCR; assay type: cell-based; conditions: 10 µM BDE-99, 24 h; n = 3
Protocol: as §1, with “Wells treated with media containing aliquots of DMSO were set up as controls.” left out
as §5

GSTP1 mRNA = GSTP1 mRNA expression in primary rat hepatocytes, quantitative RT-PCR; assay type: cell-based; conditions: 10 µM BDE-99, 24 h; n = 3
Protocol: as §1, with “Wells treated with media containing aliquots of DMSO were set up as controls.” left out
as §5

[1] = hepatocytes exposed to 10 µM BDE-99

Structure (SMILES): Oc1cc(Br)c(Br)cc1Br [2,4,5-tribromophenol]
- metabolite of BDE-99 detected by GC/MS (qualitative) (primary rat hepatocytes; [1]): identified

Structure (SMILES): Brc1ccc(Oc2ccc(Br)cc2Br)c(Br)c1 [BDE-47]
- metabolite of BDE-99 detected by GC/MS (qualitative) (primary rat hepatocytes; [1]): found in all hepatocytes exposed to BDE-99
- average concentration of metabolite BDE-47 formed from BDE-99 (primary rat hepatocytes; hepatocytes exposed to 10 µM BDE-99, neutral extracts, GC/MS): 215.9±35.8 pmol/well

Structure (SMILES): Oc1cc(Oc2ccc(Br)cc2Br)c(Br)cc1Br [5-OH-BDE-47]
- metabolite of BDE-99 detected by GC/MS (qualitative) (primary rat hepatocytes; [1]): identified

Structure (SMILES): Brc1ccc(Oc2cc(Br)c(Br)cc2Br)c(Br)c1 [BDE-99, 2,2′,4,4′,5-pentabromodiphenyl ether]
- Clearance rate of BDE-99 (%) (human CYP1A1): 14.5%
- Clearance rate of BDE-99 (%) (human CYP1A2): 30.3% and 30.3±6.5%
- Clearance rate of BDE-99 (%) (human CYP2A6): 11.6% and 11.6±2.3%
- Clearance rate of BDE-99 (%) (human CYP2E1): seemed not to be associated with the BDE-99 metabolism; also recorded: did not contribute to any metabolism of BDE-99; also recorded: N.S. ^b
- Clearance rate of BDE-99 (%) (human CYP3A4): 27.7% and 27.7±5.1%
- BDE-99 mass unrecovered (primary rat hepatocytes; after 24-h incubation, initial 10.21±0.50 nmol/well): about 13.5%
- metabolite of BDE-99 detected by GC/MS (qualitative) (primary rat hepatocytes; [1]): no MeO metabolite was determined
- average percentage increase of CYP1A2 mRNA expression vs control (CYP1A2 mRNA): 15%
- average percentage increase of CYP2B1/2 mRNA expression vs control (CYP2B1/2 mRNA): 22%
- average percentage increase of CYP3A23/3A1 mRNA expression vs control (CYP3A23/3A1 mRNA): 124%
- GSTM1 mRNA expression, treated cells vs control cells (GSTM1 mRNA): no differences
- GSTP1 mRNA expression, treated cells vs control cells (GSTP1 mRNA): no differences

Structure (SMILES): Oc1cc(Oc2cc(Br)c(Br)cc2Br)c(Br)cc1Br [5′-OH-BDE-99]
- metabolite of BDE-99 detected by GC/MS (qualitative) (primary rat hepatocytes; [1]): identified

Source: article PMC3596558, “Identification of the metabolites of polybrominated diphenyl ether 99 and its related cytochrome P450s^” (Journal of Biomedical Research, 2010)
